Patent publication US20180140572A1, “COMPOSITIONS COMPRISING A CANCER STEMNESS INHIBITOR AND AN IMMUNOTHERAPEUTIC AGENT FOR USE IN TREATING CANCER” (Boston Biomedical, Inc., priority 2015, published 2018)

Experiments:
p-STAT3 = p-STAT3 staining of CT26 tumors after treatment; assay type: in vivo, mouse; conditions: vs control group
Text: All BALB/c mice (Taconic, Hudson, N.Y., USA) were housed in Association for Assessment and Accreditation of Laboratory Animal Care approved facilities in static microisolator cages. Murine MSS-status colon carcinoma CT26 cells (ATCC CRL-2639) and murine breast carcinoma cells 4T1 (ATCC CRL-2539) were purchased from American Type Culture Collection (ATCC, Manassas, Va., USA), and grown in RPMI-1640 medium (ATCC) supplemented with 10% heat-inactivated fetal calf serum. After harvesting during exponential growth, tumors were initiated by subcutaneously implanting 3×10^5 CT26 tumor cells into the right dorsal flank of each 8-12 week old female BALB/c mouse. […] Body weight and clinical signs were monitored throughout the course of the treatment in accordance with the Institutional Animal Care and Use Committee approved protocols. Drug efficacy was analyzed by measuring tumor volume in mm^3 calculated by multiplying 0.5×width^2×length. […]
At the end of treatment, tumors were harvested from euthanized mice. […] After mounting in ProLong mounting medium containing DAPI (Invitrogen), the slides were examined on a Zeiss Axio Imager M2 upright fluorescence microscope with a 20× objective and analyzed with Zen software.

CT26 tumor cells = experiment: Tumor sphere formation of cells dissociated from treated CT26 tumors; assay type: cell-based, mouse; conditions: 1000 live tumor cells from treated tumors, 10 days in culture, vs control
Description: Portions of tumor tissues were dissociated into a single cell suspension by enzymatic digestion with DMEM (Gibco) containing 200 U/mL Collagenase (Sigma) and 100 U/mL DNAse I (Sigma) at 37° C. for 30 minutes. Cells were then filtered through 40 μm strainers and incubated for 5 min at room temperature in ACK lysis buffer (Thermo Fisher) to remove red blood cells. 1000 live tumor cells, as assessed by Trypan blue (Gibco) staining, were then suspended in 1 mL sphere medium and plated on a low-attachment cell culture 12-well plate in triplicate. Cancer sphere culture medium included B-27 (Gibco), 20 ng/ml EGF (R&D), 10 ng/ml basicFGF (R&D), 0.4% BSA Gemini, and 0.3% agarose in DMEM/F12 (Gibco). After 10 days in culture, the number of tumor spheres was counted.

IDO1 = IDO1 expression in ovarian cancer xenograft model (SKOV-3); assay type: in vivo, mouse; conditions: SKOV-3 xenograft, 0, 1, 2, 4, 8, and 24 hours
Description: FIG. 13A and FIG. 13B show an exemplary reduction in IDO1 expression at 0, 1, 2, 4, 8, and 24 hours after treatment of SW480 xenograft colorectal cancer cells (FIG. 13A) and SKOV3 xenograft ovarian cancer cells (FIG. 13B) with an exemplary cancer sternness inhibitor, e.g., BBI608, according to certain embodiments of the present disclosure.
At the end of treatment, tumors were harvested from euthanized mice. Part of the dissected tumors were fixed overnight in 3.7% or 10% neutral buffered formaldehyde at 4° C., and then paraffin embedded, cut to 4-5 micron sections, and affixed onto positively charged slides. After baking and deparaffinization, the slides with tumor or control tissues were incubated in a 10 mM sodium citrate solution pH=6.0 for antigen retrieval at 98° C. […] After mounting in ProLong mounting medium containing DAPI (Invitrogen), the slides were examined on a Zeiss Axio Imager M2 upright fluorescence microscope with a 20× objective and analyzed with Zen software.

[1] = test system: CD8^+ T cells producing IFN-γ; experiment: Tumor antigen-specific T cell immune response (IFN-γ producing spleen CD8+ T cells); assay type: in vivo, Apc^Min/+ mice; conditions: in the presence of the tumor antigen, vs control samples
Text: All animals were housed in Association for Assessment and Accreditation of Laboratory Animal Care-approved facilities in static microisolator cages. Testing confirmed the mice were pathogen-free and there was no evidence of murine Helicobacter spp. by culture or PCR. Apc^Min/+ mice on a C57BL/6J background were originally obtained from the Jackson Laboratory (Bar Harbor, Me.) and bred in-house to wild-type (wt) C57BL/6J mice to generate Apc^Min/+. 17 week old Apc^Min/+ mice or matched wild-type controls were treated with either vehicle alone, or BBI608 at 200 mg/kg daily by oral gavage (p.o., q.d.) for 4 consecutive days (n=4/group). Body weight and clinical signs were monitored throughout the course of the treatment. On treatment day 4, the animals were sacrificed 4 hours after the last dose and the tumors in the Apc^Min/+ small intestine or a piece of normal intestine, from wild type controls, were harvested.
Spleen tissues were collected from the above APC^Min/+ mice at the time of tumor harvesting. CD8^+ T cells were separated using a CD8^+ T cells isolation kit according to the manufacturer's protocol (STEMCELL Technology). […] Intracellular IFN-γ was then stained with Alexa-647 labeled rat anti-mouse IFN-γ antibody (1:100, BD) and CD8^+ T cells producing IFN-γ were analyzed under the Zeiss fluorescence microscope described above.

## CC(=O)c1cc2c(o1)C(=O)c1ccccc1C2=O [BBI608, 2-acetylnaphtho[2,3-b]furan-4,9-dione]
p-STAT3
  p-STAT3 level in CT26 tumors: reduced p-STAT3 levels
CT26 tumor cells
  number of tumor spheres: significantly lower numbers of spheres than control
IDO1
  IDO1 expression level: reduced the IDO1 expression level in a time-dependent manner
[1]
  percentage of CD8^+ T cells producing INF-γ: higher percentage
